Experimental data taken from patent US20180085374A1, “Use of Morpholino Compounds for the Treatment of Halitosis” (MERIAL INC., priority 2007, published 2018).

Tests used:
oral bacteria = conditions: delmopinol mouthwash; cited from earlier work
[1] = test system: Volatile Sulphur Compounds (VSCs); assay: Levels of VSCs following treatment with delmopinol; assay type: in vivo

CCCC(CCC)CCCC1COCCN1CCO (centres unmarked) [delmopinol, 3-(4-propyl-heptyl)-4-(2-hydroxyethyl)morpholine]
numbers or proportions of oral bacteria (oral bacteria): does not significantly affect
levels of VSCs [1]: decrease
